One experiment deals with T1, AR1-651 (Homo sapiens, UniProt P10275).
T1 construct: FLAG; expressed in transfected cells; host or cells: 22RV1
T1 sequence (P10275 1-651): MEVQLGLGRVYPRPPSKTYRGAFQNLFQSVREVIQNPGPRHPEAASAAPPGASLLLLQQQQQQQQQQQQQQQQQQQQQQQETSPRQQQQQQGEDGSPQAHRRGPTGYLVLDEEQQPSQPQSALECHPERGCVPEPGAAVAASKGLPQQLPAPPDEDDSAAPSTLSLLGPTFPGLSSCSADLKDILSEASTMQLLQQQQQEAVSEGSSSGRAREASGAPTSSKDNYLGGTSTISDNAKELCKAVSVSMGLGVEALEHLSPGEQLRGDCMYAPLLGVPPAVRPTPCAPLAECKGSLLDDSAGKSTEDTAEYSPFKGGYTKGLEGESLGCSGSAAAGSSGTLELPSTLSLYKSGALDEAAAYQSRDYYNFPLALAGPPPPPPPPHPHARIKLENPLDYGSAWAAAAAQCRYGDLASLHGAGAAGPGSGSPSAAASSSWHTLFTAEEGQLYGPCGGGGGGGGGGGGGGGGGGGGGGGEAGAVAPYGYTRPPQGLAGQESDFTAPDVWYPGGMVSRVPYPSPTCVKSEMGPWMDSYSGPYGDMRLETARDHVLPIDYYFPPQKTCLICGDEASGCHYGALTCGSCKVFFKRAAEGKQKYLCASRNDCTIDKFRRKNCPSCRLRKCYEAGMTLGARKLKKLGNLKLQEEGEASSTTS
As to the kind of experiment: MMTV-luc dual luciferase reporter assay, AR1-651-induced activity in 22RV1 cells.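 Also: luminometric read-out of firefly luciferase signal normalized to Renilla luciferase signal.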 Format: cell-based. The following applies: 22RV1, AR1-651 +, compound 25 µM, 12 h. For orientation: In a reporter assay the amount or activity of a reporter protein is the signal.
Protocol: Renilla and firefly activities were then determined by luminometry using the Dual-Luciferase Reporter Assay System (Promega) and the ratio calculated. Results were expressed as the ratio of firefly to Renilla luciferase activity.
Regarding `CC(C)(c1ccc(OCC(O)CO)cc1)c1ccc(OCC(O)CCl)cc1` (stereo not drawn) [EPI-001, reference compound], the “MMTV-luc Activity (%), AR1-651-induced” value is reported as 54.2%.

The same experiment, now with this note: 22Rv1, read-out: MMTV-luc Activity (%), AR1-651-induced.
As to `CC(C)(C)[C@]1(O)CC2OC(=O)CC23C(=O)OC2OC(=O)[C@H](O)C231` (stereo partly shown) [Bilobalide], the activity at 10 µM worked out at 98.7 ± 1.1%. As for `OCc1ccc(O[C@@H]2O[C@H](CO)[C@@H](O)[C@H](O)[C@H]2O)cc1` [Gastrodin], the activity at 10 µM is 70 ± 3.7%. Take `COc1cc(-c2oc3cc(O)cc(O)c3c(=O)c2O)ccc1O` [Isorhamnetin]: the activity at 10 µM amounted to 139%. On the same count and under the same terms, for `O[C@H]1[C@H]2c3cc4c(cc3CN3CCC(=C[C@@H]1O)[C@H]23)OCO4` [Lycorine] the value was 66%.

In the case of `C=CCc1ccc(O)c(-c2cc(CC=C)ccc2O)c1` [Magnolol], the activity at 1 µM is 60.6% and the activity at 10 µM stood at 59.3%.

Staying with this experiment, now noted: 22Rv1, read-out: MMTV-luc Activity (%), AR1-651-induced, 22RV1, AR1-651 +, compound 1 µM, 12 h.
As to `C=C1CC[C@@H]2[C@](C)(CO)[C@H](O)CC[C@@]2(C)[C@@H]1C/C=C1/C(=O)OC[C@H]1O` [Andrographolide], the activity at 1 µM came out at 70%. The same measure, in the same setting: to `O=C(CCc1ccc(O)cc1)c1c(O)cc(O)cc1O[C@@H]1O[C@H](CO)[C@@H](O)[C@H](O)[C@H]1O` [Phlorizin] belongs 126%; to `CC1=CC(=O)c2c(O)cccc2C1=O` [Plumbagin], 128%.

The experiment is the same for the next values; noted with them: 22Rv1, read-out: MMTV-luc Activity (%), AR1-651-induced, 22RV1, AR1-651 +, compound 10 µM, 12 h, mean ± s.d., n=3.
For the molecule `C=C1CC[C@@H]2[C@](C)(CO)[C@H](O)CC[C@@]2(C)[C@@H]1C/C=C1/C(=O)OC[C@H]1O` [Andrographolide], the activity at 10 µM worked out at 59.5%. Regarding `O=C1C=CC2(CCC23C=CC(=O)O3)O1` (stereo not shown) [Anemonin], the activity at 10 µM was 112%. Take `O=C(O)[C@H]1O[C@@H](Oc2cc3oc(-c4ccccc4)cc(=O)c3c(O)c2O)[C@H](O)[C@@H](O)[C@@H]1O` [Baicalin]: the activity at 10 µM was 113%. As for `C=C(C)[C@@H]1CC[C@]2(C(=O)O)CC[C@]3(C)[C@H](CC[C@@H]4[C@@]5(C)CC[C@H](O)C(C)(C)[C@@H]5CC[C@]43C)[C@@H]12` [Betulinic acid], the activity at 10 µM was 65.2%. Still for that read-out and setting: for `COc1cc(/C=C/C(=O)CC(=O)/C=C/c2ccc(O)c(OC)c2)ccc1O` [Curcumin] the value was 178%. As to `O=c1c(-c2ccc(O)cc2)coc2cc(O)ccc12` [Daidzein], the activity at 10 µM stood at 177%. As for `O=C1c2c(O)cc(O)cc2O[C@H](c2cc(O)c(O)c(O)c2)[C@H]1O` [Dihydromyricetin], the activity at 10 µM was 89.8 ± 8%. For the molecule `C[C@@H]1CC[C@@]2(OC1)O[C@H]1C[C@H]3[C@@H]4CC=C5C[C@@H](O)CC[C@]5(C)[C@H]4CC[C@]3(C)[C@H]1[C@@H]2C` [Diosgenin], the activity at 10 µM is 148%. With `CC(C)[C@@H](C)/C=C/[C@@H](C)[C@H]1CC[C@H]2C3=CC=C4C[C@@H](O)CC[C@]4(C)[C@H]3CC[C@]12C` [Ergosterol], the activity at 10 µM stood at 96.3 ± 6.1%. `O=c1c(-c2ccc(O)cc2)coc2cc(O)cc(O)c12` [Genistein]: the activity at 10 µM was 157%. For `CC(C)=CCC[C@](C)(O[C@@H]1O[C@H](CO)[C@@H](O)[C@H](O)[C@H]1O)[C@H]1CC[C@]2(C)[C@@H]1[C@H](O)C[C@@H]1[C@@]3(C)CC[C@H](O)C(C)(C)[C@@H]3[C@@H](O[C@@H]3O[C@H](CO)[C@@H](O)[C@H](O)[C@H]3O)C[C@]12C` [Ginsenoside Rg1], the activity at 10 µM came out at 77.2%. As for `O=c1c(O[C@@H]2O[C@H](CO)[C@@H](O)[C@H](O)[C@H]2O)c(-c2ccc(O)c(O)c2)oc2cc(O)cc(O)c12` [Isoquercitrin], the activity at 10 µM amounted to 95.5%.

As for `CCNC(=O)CC[C@H](N)C(=O)O` [L-Theanine], the activity at 10 µM worked out at 61.9%. `O=c1cc(-c2ccc(O)c(O)c2)oc2cc(O)cc(O)c12` [Luteolin]: the activity at 10 µM was 82.7 ± 4.5%. As for `C[C@@]12C[C@@]3(O)O[C@@H](O1)[C@]1(COC(=O)c4ccccc4)[C@H]3C[C@@]12O[C@@H]1O[C@H](CO)[C@@H](O)[C@H](O)[C@H]1O` [Paeoniflorin], the activity at 10 µM was 88.5%. Take `O=C(CCc1ccc(O)cc1)c1c(O)cc(O)cc1O[C@@H]1O[C@H](CO)[C@@H](O)[C@H](O)[C@H]1O` [Phlorizin]: the activity at 10 µM came out at 52.9%. Still for that read-out and setting: to `CC1=CC(=O)c2c(O)cccc2C1=O` [Plumbagin] belongs 28.8 ± 7.9%. For `COc1cc(/C=C/c2ccc(O)cc2)cc(OC)c1` [Pterostilbene], the activity at 10 µM came out at 90 ± 5.4%.

Values taken from PMC5159881 (Nature Communications, 2016).
